According to BindingDB's records for doi:10.1021/acs.jmedchem.8b00875 (2019):

Experiments:
[1] = biological target: T1, 5-hydroxytryptamine receptor 2C (Homo sapiens, UniProt P28335); assay: Positive allosteric modulation of 5-HT2C receptor (unknown origin) assessed as increase in 5-HT-induced displacement of [3H]mesulergine by measuring 5-HT Ki at 20 uM (Rvb = 159 nM)
T1 sequence (P28335 whole entry): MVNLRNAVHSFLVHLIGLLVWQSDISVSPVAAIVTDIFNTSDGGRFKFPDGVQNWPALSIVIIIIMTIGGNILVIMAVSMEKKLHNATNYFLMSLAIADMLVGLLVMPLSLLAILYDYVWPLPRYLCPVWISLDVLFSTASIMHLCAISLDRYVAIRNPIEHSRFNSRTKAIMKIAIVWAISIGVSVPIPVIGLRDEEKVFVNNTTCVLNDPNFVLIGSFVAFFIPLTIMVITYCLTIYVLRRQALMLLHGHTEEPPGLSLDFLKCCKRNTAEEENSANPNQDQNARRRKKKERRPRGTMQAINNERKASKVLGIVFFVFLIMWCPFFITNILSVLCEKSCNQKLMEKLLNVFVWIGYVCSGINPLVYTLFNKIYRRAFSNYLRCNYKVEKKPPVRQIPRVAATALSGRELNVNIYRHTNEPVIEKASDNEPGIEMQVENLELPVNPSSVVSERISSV

[2] = biological target: T2, Muscarinic acetylcholine receptor M1 (Homo sapiens, UniProt P11229); assay: Positive allosteric modulation of M1 AchR (unknown origin)
T2 sequence (P11229 whole entry): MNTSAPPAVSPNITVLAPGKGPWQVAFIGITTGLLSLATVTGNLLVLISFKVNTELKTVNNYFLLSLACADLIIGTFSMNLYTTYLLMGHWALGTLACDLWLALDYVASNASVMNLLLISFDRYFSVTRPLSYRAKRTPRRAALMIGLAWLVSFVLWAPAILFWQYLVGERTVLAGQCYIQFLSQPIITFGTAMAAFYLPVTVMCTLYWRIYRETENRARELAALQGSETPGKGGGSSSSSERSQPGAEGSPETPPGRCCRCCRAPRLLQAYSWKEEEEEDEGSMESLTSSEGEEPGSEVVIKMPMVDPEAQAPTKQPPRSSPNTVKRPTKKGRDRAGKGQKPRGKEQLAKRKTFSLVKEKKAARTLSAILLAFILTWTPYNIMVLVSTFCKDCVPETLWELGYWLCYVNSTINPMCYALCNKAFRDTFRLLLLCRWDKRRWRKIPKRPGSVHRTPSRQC

`CCCCCCCCCCC[C@@H]1CCN[C@H](C(=O)N[C@@H]([C@H]2O[C@H](SC)[C@H](O)[C@@H](O)[C@H]2O)[C@H](C)Cl)C1` showed a Ki [1] of 6.4 nM.
Work on `Cn1cc(-c2ccc(Cn3cc(C(=O)N[C@H]4CCCC[C@@H]4O)c4c(F)cc(F)cc43)cn2)cn1` yielded an EC50 [2] of 210 nM.
